Source: patent US9023831B2, “Methods and compositions of inhibiting complement and cellular activation with Dextran Sulfate” (Novelmed Therapeutics, Inc., priority 2007, dated 2015)
Where “and” joins values, the source holds several entries; their conditions need not be identical. Equal entries are not always repeated. Entries after “also recorded” stand apart in the source; their conditions may differ.

Assays:
[1] = system: monocytes (CD11b expression); assay: Monocyte activation (CD11b flow cytometry) after tubing loop; format: cell-based, human
From the text: (§1) Same samples of blood following the tubing loop were also subjected to monocyte specific flow cytometry. […] Similar data was obtained with multiple donors. In the Figure are shown Rotated Control (blood sample in tubing loop), Unrotated controls (samples taken out before tubing loop). Unrotated represents the background controls.
(§2) The activation of neutrophils, monocyte and platelets were quantitated by measuring the levels of the cell-surface expression of CD11b and CD62P on neutrophils/monocytes and platelets, respectively. For CD11b labeling of neutrophils, 200 μl of whole blood collected from the circuits were immediately incubated with 20 μl of phycoerythrin (PE)-anti-CD11b antibody (Becton Dickinson, San Jose, Calif.) for 20 minutes at room temperature in a microcentrifuge tube. Then 2 ml of FACS Lysing Solution (Becton Dickinson) was added for 20 minutes at room temperature to lyse red blood cells and to fix leukocytes. The microcentrifuge tubes were centrifuged at 300 g for 5 minutes for leukocytes and 1200 g for platelets. The supernatant was aspirated and the cells resuspended in PBS for washing. The tubes were spun again, the supernatant aspirated, and the cells finally resuspended in 0.5 ml of 1% paraformaldehyde overnight prior to analysis using an BD-LSR flow cytometer (BD Biosciences). For double labeling to concomitantly identify the neutrophil population, 10 μl of fluorescein isothiocyanate (FITC)-anti-CD15 antibody (clone MMA, Becton Dickinson) were added for incubation together with PE-anti-CD11b antibody to stain neutrophils and anti-CD14 (FITC) along with PE-CD11b was used for monocytes.
(§3) Neutrophils bear both C3a and C5a receptors. Thus, prevention of C3a/C5a production should have direct effect on CD11b expression. Monocytes have been known to bear the C3a receptors. C3a produced because of complement activation is known to activate monocytes.

[2] = system: C5b-9 Formation in Normal Human Serum; assay: Alternative pathway-dependent C5b-9 (MAC) solid phase ELISA on LPS; format: biochemical; settings: 8% NHS, LPS coated wells
Procedure: Uncoated wells served as background controls.
Microtiter wells were coated with LPS (2 μg/50 μl per well) in VBS overnight at 4° C. Uncoated wells served as background controls. After aspirating the LPS solution, wells were treated with blocking solution and incubated with various concentrations of normal human serum.

[3] = system: arthritic Lewis rats; assay: Joint inflammation and bone destruction in Rat-AIA (CFA-induced arthritis); format: in vivo
Procedure: Lewis male rats were used to examine the effect of Dextran Sulfate combination with aggrastat (molecular weight 40,000 and 5,000) for the treatment of arthritis. Arthritis was induced in adult male Lewis rats (200-225 gm) by an intradermal injection of complete Freund's adjuvant (CFA) at the base of the tail on the dorsal side. The CFA (100 mg dried and heat killed Mycobacterium butyricum (Difco, Detroit, Mich.) emulsified in 10 ml sterile mineral oil) was prepared by grinding the bacteria powder with a mortar and pestle until the bacterial cell wall turned from a light beige to an eggshell white powder. The mineral oil was then slowly mixed into the bacterial cell wall using the mortar and pestle. All animals in each experiment were challenged with the same preparation of adjuvant and nearly 100% of the animals developed arthritis. Dextran Sulfate was obtained from Sigma Aldrich Corp and Aggrastat was purchased from the pharmacy. Dextran Sulfate was dissolved in aggrastat. The drug treatment started on day 10 post-immunization, the time of disease onset, and continued until sacrifice. The dose of Dextran Sulfate was 20 & 10 mg/Kg/per day per 150-200 g rat. The inflammatory response was assesed by the measurement of paw volume. Paw volume appears to be very consistent and gave slow increasing arthritis over time. Paw volumes were measured every day until sacrifice using Plethysmometer (IITC). After the sacrifice/euthanasia, limbs were removed and processed for;
a) histological evaluations: Only three animals were used per group. Sections were stained with Eosin and hematoxylin to identify various regions within the inflamed limb. Untreated controls have intact cartilage layer and the bone (Score 0) and clear synovium without pannus. Arthritic controls had no defined cartilage bone, and have pannus layer and significant inflammation (Score 5). Enbrel was used as positive control. […] We gave a score of 2.
b) Paw Swelling: Each paw was measured for water displacement using plethysmometer. Paw volume was measured every day.
Continuous treatment of Dextran Sulfate therapies from disease onset affected paw swelling in arthritic rats. All adjuvant-challenged rats developed AA between days 10-12. […] While inflammation was decreased in these treatment groups, we observed a greater effect for these drugs in prevention of bone and cartilage destruction.

[4] = system: neutrophils (CD11b expression); assay: Neutrophil activation (CD11b flow cytometry) after tubing loop; format: cell-based, human
From the text: as §1, with “neutrophil” for “monocyte”
as §2, §3
For flow cytometry measurement, the PMN (containing mainly neutrophils) and platelet populations were identified by live gating based on forward- versus side-scatter parameters and specific staining with FITC-anti-CD15 antibody and FITC-anti-CD61 antibody, respectively. The background staining was gated using isotype-matched labeled antibodies. The intensity of expression of CD11b and CD62P was represented by mean fluorescence intensity (MFI).

[5] = target: Properdin Binding to C3b (Homo sapiens, UniProt P27918); assay: Inhibition of properdin binding to C3b (ELISA); settings: C3b coated plates
Procedure: Methods: Polystyrene microtiter plates were coated with C3b in phosphate buffered saline (PBS) overnight. After aspirating the C3b solution, wells were blocked bovine serum albumin Wells without C3b coating served as background controls. […] Wells were washed PBS and C3b-bound properdin was detected by the addition of a mouse anti-human properdin antibody (Quidel, P#2 monoclonal). After washing the plate with PBS, HRP-conjugated goat anti-mouse antibody (Sigma Chemicals A2304) was added and allowed to incubate for 1 h. The plate was again rinsed thoroughly with PBS, and TMB substrate was added to each well. The data was plotted using Microcal Origin Program.
In a typical assay, polystyrene microtiter plates were coated with C3b (50 μg/50 μl/well, Advanced Research Technologies, San Diego, Calif.) in phosphate buffered saline (PBS) overnight at 4° C. After aspirating the C3b solution, wells were blocked with PBS containing 1% bovine serum albumin (BSA) (Sigma Chemical Company, St. Louis, Mo., Cat. No. A7888) for 2 hours at room temperature. Wells without C3b coating served as background controls. […] C3b-bound properdin was detected by the addition of mouse monoclonal anti-human properdin antibody (detection antibody) (Quidel, San Diego, Calif., anti-human properdin monoclonal antibody P#2, Cat. No. A235) at 1:2000 dilution in blocking solution, which was allowed to incubate for 1 hour at room temperature. […] After incubation for 10 minutes at 25° C., the reaction of TMB was quenched by the addition of 100 μl of phosphoric acid, and the plate was read at 450 nm in a microplate reader (e.g., SPECTRA MAX 190, Molecular Devices, Sunnyvale, Calif.). […]
The ability of a Dextran Sulfate to inhibit C3b-P binding was evaluated by adding varying concentrations of Dextran Sulfate to a constant concentration of properdin (2 nM). The amount of properdin bound to C3b was detected with the antibody detection system described above.

[6] = system: sC5b-9 in Normal Heparinized Whole Human Blood; assay: sC5b-9 ELISA after tubing loop model of cardiopulmonary bypass; settings: for inhibition of sC5b-9 formation / complement activity in whole blood / inhibition of sC5b-9 formation: 2 hour tubing loop rotation
Procedure: An aliquot of the plasma following the 2 hour tubing loop rotation in bypass was evaluated for sC5b-9 using ELISA kit from Quidel Corporation.
Preparation of Tubing Loops: Tubing loops (PVC, cat # . . . VWR Scientific) were prepared by cutting a piece of polyvinyl tubing and connecting the ends of the tubing with a piece of silicone plug. Blood was drawn using 16 gauge needled from fasting healthy donors. The blood volume of 45 was drawn into a 50 ml polypropylene tube containing a final concentration of 5 units of heparin per ml of blood. The blood was diluted with 35 ml plasmalyte. The diluted blood (2 ml) was filled in each tubing loop. Duplicate tubing loops were prepared for each treatment. Blood samples were prepared as follows; no treatment, treated with various concentrations of Dextran Sulfate.
(2) Tubing Loop Operation and Sampling: The concentration of Dextran Sulfate was chosen based upon in vitro assay and the concentration of plasma. Concentrations of Dextran Sulfate in range of 800 μg/ml, 400 μg/ml, 200 μg/ml, 100 μg/ml, and 40 μg/ml. Prior to the addition of the untreated and treated blood to the extracorporeal circuit, a blood sample was taken from the stock of diluted blood and is designated baseline control. At that time, various concentrations of Dextran Sulfate in blood will be filled into the tubing loop. Following a 2 hours rotation at 37°, tubing loop samples were transferred to 2 ml polypropylene tubes and plasma samples were prepared by immediate centrifugation at 2,000 g. […] A number of controls were put into place. From the donor we obtained serum, heparinized whole blood plasma, unrotated controls, rotated controls, and Dextran Sulfate treated samples.
Plasma aliquots for measuring sC5b-9 in ELISA. Aliquots were appropriately diluted for the measurements of sC5b-9 complex in plasma.

[7] = system: Alternative Pathway (AP) Activation in a Rabbit Erythrocyte Assay; assay: Alternative pathway-dependent hemolysis of rabbit erythrocytes in normal human serum; settings: for inhibition of AP-dependent hemolysis: 10 μg/ml
Procedure: X axis is time of hemolysis in seconds and Y-axis is scattering at 700 nm. Methods: Normal human serum 10% was incubated with rabbit erythrocytes in AP buffer with and without Dextran Sulfate. Various concentrations of Dextran Sulfate were used ranging from 1 to 60 μg/ml.
The Dextran Sulfate (40,000 molecular weight) was examined in the alternative pathway dependent hemolysis assay. […] Normal human serum, at various concentrations in Gelatin Veronal Buffer (GVB) (Advanced Research Technology) with 5 mM MgCl2 and 10 mM EGTA, was incubated with 37° C. with a fixed number of rabbit erythrocytes (Advanced Research Technology). A progressive decrease in light scatter (due to lysis of intact cells) was measured at 700 nm as a function of time in a temperature-controlled ELISA plate reader. […] The data were recorded and analyzed with a SpectraMax 190 plate reader and SoftMax Pro software.
We evaluated Dextran Sulfate effect in a cellular assay as a means of examining the effects of the Dextran Sulfate on alternative pathway function. Increasing amounts of the Dextran Sulfate were added to 10% human serum that was incubated with rabbit erythrocytes at 37° C.

[8] = target: T1, human properdin (or factor P) (Homo sapiens, UniProt P27918); assay: Properdin binding to substrate-bound Dextran Sulfate (ELISA); settings: substrate-bound Dextran Sulfate on microtiter plate; read-out: affinity of properdin binding to Dextran Sulfate (concentration of properdin at 50% maximal binding)
T1 construct: purchased Advanced Research Technology, San Diego, Calif; A139
Procedure: The binding of properdin appears to be specific and dose dependent. Leading to an affinity of 4 nM. […] Wells without Dextran Sulfate coating serve as background controls. […] Properdin solution was added to the appropriate wells.

Properdin Binding to C3b, sequence (P27918 28-469): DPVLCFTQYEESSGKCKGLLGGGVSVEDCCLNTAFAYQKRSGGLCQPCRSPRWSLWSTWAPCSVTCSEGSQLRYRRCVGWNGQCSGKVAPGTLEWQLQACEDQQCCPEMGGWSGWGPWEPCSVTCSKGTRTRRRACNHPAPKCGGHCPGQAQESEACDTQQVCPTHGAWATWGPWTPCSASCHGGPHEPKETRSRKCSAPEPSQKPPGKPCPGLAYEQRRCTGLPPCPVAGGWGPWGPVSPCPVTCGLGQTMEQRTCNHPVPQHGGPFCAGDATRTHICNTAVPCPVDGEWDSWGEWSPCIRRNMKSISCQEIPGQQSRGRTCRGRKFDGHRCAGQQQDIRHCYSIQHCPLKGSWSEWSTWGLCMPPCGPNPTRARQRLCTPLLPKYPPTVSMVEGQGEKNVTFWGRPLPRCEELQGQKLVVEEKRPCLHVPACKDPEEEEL
T1 sequence (P27918 28-469): as above

inhibition of properdin binding to C3b [5]: dose-dependent and complete inhibition | inhibition of properdin binding to C3b ([5]; listed as Dextran Sulfate): dose-dependent inhibition | IC50 of inhibition of properdin binding to C3b ([5]; human serum containing nearly 2-5 nM properdin): ~50 µg/mL | Kd [8]: 4 nM and ~4 nM
Substance: Dextran Sulfate [NM3014]
inhibition of monocyte activation ([1]; 40 μg/ml): no effect | inhibition of monocyte activation ([1]; 100 μg/ml): inhibited; also recorded: prevents monocyte activation | inhibition of monocyte activation ([1]; 100 μg/ml, listed as Dextran Sulfate): down regulates CD11b expression | inhibition of C5b-9 (MAC) formation [2]: Inhibits C5b-9 Formation | inhibition of C5b-9 (MAC) formation ([2]; listed as Dextran Sulfate): completely prevented | soft tissue swelling ([3]; by day 28 post-adjuvant injection, vs vehicle-treated AA rats): significantly decreased | paw swelling (paw volume, plethysmometer) ([3]; with Aggrastat, compared to untreated controls, listed as Dextran Sulfate 40,000 molecular weight): significantly decreased | inhibition of neutrophil activation ([4]; 40 μg/ml): no effect | inhibition of neutrophil activation ([4]; 40 μg/ml, listed as Dextran Sulfate): No inhibition | inhibition of neutrophil activation ([4]; 800 to 100 μg/ml): inhibited; also recorded: prevents neutrophil activation | inhibition of neutrophil activation ([4]; 800 to 100 μg/ml, listed as Dextran Sulfate): inhibits neutrophil activation | inhibition of sC5b-9 formation / complement activity in whole blood ([6]; 40 μg/ml): no inhibition; also recorded: does not inhibit complement activity | inhibition of sC5b-9 formation / complement activity in whole blood ([6]; 100 μg/ml): complete inhibition; also recorded: inhibits complement activity; also recorded: inhibition of complement activity | inhibition of sC5b-9 formation ([6]; 400 μg/ml): complete inhibition | inhibition of sC5b-9 formation ([6]; 800 μg/ml): complete inhibition | inhibition of sC5b-9 production ([6]; all doses up to 100 μg/ml): completely inhibited | inhibition of AP-dependent hemolysis ([7]; 10% human serum): inhibits hemolysis | inhibition of AP-dependent hemolysis ([7]; 10% human serum, listed as Dextran Sulfate): caused inhibition | inhibition of complement AP (hemolysis) ([7]; 30 μg/ml, 10% human serum): Total inhibition | inhibition of erythrocyte lysis / AP function ([7]; increasing concentrations, human serum): completely blocking MAC-mediated cellular destruction; also recorded: full inhibition
